From article PMC8062543 (Scientific Reports, 2021) come the findings set out here.

Assay [1] has as its target T1, MtmGDH (Methylotuvimicrobium alcaliphilum, UniProt G4T0V2).
T1 construct: gene gdhI; full ORF, N-terminal His6 kept, E. coli Rosetta (DE3), pET28
Nature of the assay: NAD(P)H formation at […] nm. It counts as biochemical. The settings on record: activator; pH 10.0 glycine-NaOH, 30 °C, 200 mM D-glucose.

Assay [2] has as its target T2, MtmGDH (Methylotuvimicrobium alcaliphilum, UniProt G4T0V2).
T2 construct: gene gdhI; full ORF, N-terminal His6 kept, E. coli Rosetta (DE3), pET28
T2 sequence (G4T0V2 1-271): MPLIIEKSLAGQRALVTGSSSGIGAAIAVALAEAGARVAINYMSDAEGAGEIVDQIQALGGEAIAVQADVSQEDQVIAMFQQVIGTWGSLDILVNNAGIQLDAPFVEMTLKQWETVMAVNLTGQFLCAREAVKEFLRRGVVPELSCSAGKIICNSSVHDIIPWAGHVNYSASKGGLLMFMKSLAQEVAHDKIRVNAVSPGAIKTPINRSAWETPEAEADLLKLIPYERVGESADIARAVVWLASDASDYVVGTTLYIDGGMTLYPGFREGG
Nature of the assay: biochemical. As to conditions: 1 mM; read-out: % of control remaining. As for the experimental part:
GDH activity assay The activity of GDH from Mtm. alcaliphilum was measured by recording the rate of NAD^+ or NADP^+ reduction at 30 °C. 1 mL of the reaction mixture routinely contained 50 mM Glycine–NaOH buffer, pH 10.0; 0.3 mM NAD(P)^+ and ~ 1 μg of GDH. The reaction was started with 200 mM D-glucose. The activity of Mb. luteus GDH was measured using 20 mM D-glucose in 50 mM Tris–HCl, pH 8.5. […] The effect of pH on the activity was studied using the following buffers (50 mM): Glycine–NaOH (pH 9.0–10.5), CHES-NaOH (pH 8.5–10.0), Tris–HCl (pH 7.5–9.0), and MES-NaOH (pH 5.0–7.0). KCl, NH4Cl or NaCl at a final concentration of 50 mM were added to test the effect of monovalent ions on the enzyme activity. The effects of divalent metals were assessed using MgCl2, MnCl2, [compound left out], CuCl2, CdCl2, NiCl2 or ZnCl2 at a final concentration of 1 mM. Glucose-6-phosphate, glucose-1-phosphate, fructose-6-phosphate, fructose-1,6-bisphosphate (5 mM), pyruvate, PEP, oxaloacetate, lactate, malate, isocitrate, citrate, succinate, serine, α-ketoglutarate, ATP, ADP, AMP and PPi (1 mM) were examined as potential inhibitors or activators. To determine the optimal temperature for enzyme activity, the reaction was carried out in a temperature range of 10–70 °C.

Structures are written as SMILES.

As for `O=C(O)C[C@H](C(=O)O)[C@@H](O)C(=O)O` [isocitrate], at MtmGDH [1], the “% increase of activity at 1 mM” value was 40%. Besides, at MtmGDH [2], the remaining activity at 1000 µM was 140 ± 4%.
